Measurements as given in the NIST ThermoML archive (doi:10.1021/je500275j).
Numbers after ± are expanded uncertainties.

Tests used:
[1] = for viscosity / mass density: 100 kPa, Liquid; for viscosity: Falling or rolling sphere viscometry; for mass density: Vibrating tube method
[2] = refractive index (Na D-line) (dimensionless); details: 293.15 K; 101.33 kPa; Liquid; Standard Abbe refractometry
[3] = xn = mol fraction of the nth substance listed; details: 100 kPa, Liquid; for viscosity: Falling or rolling sphere viscometry; for mass density: Vibrating tube method

Row | SMILES | viscosity ([1]; 293.15 K) [mPa·s] | mass density ([1]; 293.15 K) [kg/m3] | viscosity ([1]; 298.15 K) [mPa·s] | mass density ([1]; 298.15 K) [kg/m3] | viscosity ([1]; 303.15 K) [mPa·s] | mass density ([1]; 303.15 K) [kg/m3] | viscosity ([1]; 308.15 K) [mPa·s] | mass density ([1]; 308.15 K) [kg/m3] | viscosity ([1]; 313.15 K) [mPa·s] | mass density ([1]; 313.15 K) [kg/m3] | viscosity ([1]; 318.15 K) [mPa·s] | mass density ([1]; 318.15 K) [kg/m3] | refractive index [2] | further results
1 | CCC1CCCCC1 [ethylcyclohexane] | 0.851 ± 0.012 | 788.23 ± 0.15 | 0.796 ± 0.012 | 784.2 ± 0.15 | 0.748 ± 0.011 | 780.16 ± 0.15 | 0.704 ± 0.011 | 776.11 ± 0.15 | 0.665 ± 0.011 | 772.04 ± 0.15 | 0.629 ± 0.011 | 767.96 ± 0.15 | 1.4275 ± 0.004 | 
2 | CC1CCCCC1 [methylcyclohexane] + C1CCC(C2CCCCC2)CC1 |  |  |  |  |  |  |  |  |  |  |  |  |  | viscosity ([3]; 293.15 K, x2 = 0): 0.733 ± 0.011 mPa·s; mass density ([3]; 293.15 K, x2 = 0): 769.58 ± 0.15 kg/m3; viscosity ([3]; 298.15 K, x2 = 0): 0.687 ± 0.011 mPa·s; mass density ([3]; 298.15 K, x2 = 0): 765.23 ± 0.15 kg/m3; viscosity ([3]; 303.15 K, x2 = 0): 0.645 ± 0.011 mPa·s; mass density ([3]; 303.15 K, x2 = 0): 760.89 ± 0.15 kg/m3; viscosity ([3]; 308.15 K, x2 = 0): 0.608 ± 0.011 mPa·s; mass density ([3]; 308.15 K, x2 = 0): 756.53 ± 0.15 kg/m3; viscosity ([3]; 313.15 K, x2 = 0): 0.575 ± 0.011 mPa·s; mass density ([3]; 313.15 K, x2 = 0): 752.17 ± 0.16 kg/m3; viscosity ([3]; 318.15 K, x2 = 0): 0.545 ± 0.011 mPa·s; mass density ([3]; 318.15 K, x2 = 0): 747.78 ± 0.16 kg/m3
3 | CCCCC1CCCCC1 [butylcyclohexane] + C1CCC(C2CCCCC2)CC1 |  |  |  |  |  |  |  |  |  |  |  |  |  | viscosity ([3]; 293.15 K, x2 = 0): 1.3 ± 0.014 mPa·s; mass density ([3]; 293.15 K, x2 = 0): 799.6 ± 0.15 kg/m3; viscosity ([3]; 298.15 K, x2 = 0): 1.198 ± 0.013 mPa·s; mass density ([3]; 298.15 K, x2 = 0): 795.85 ± 0.15 kg/m3; viscosity ([3]; 303.15 K, x2 = 0): 1.109 ± 0.013 mPa·s; mass density ([3]; 303.15 K, x2 = 0): 792.1 ± 0.15 kg/m3; viscosity ([3]; 308.15 K, x2 = 0): 1.03 ± 0.013 mPa·s; mass density ([3]; 308.15 K, x2 = 0): 788.33 ± 0.15 kg/m3; viscosity ([3]; 313.15 K, x2 = 0): 0.96 ± 0.012 mPa·s; mass density ([3]; 313.15 K, x2 = 0): 784.56 ± 0.15 kg/m3; viscosity ([3]; 318.15 K, x2 = 0): 0.898 ± 0.012 mPa·s; mass density ([3]; 318.15 K, x2 = 0): 780.78 ± 0.15 kg/m3
4 | C1CCC(C2CCCCC2)CC1 [1,1'-bicyclohexyl] | 4.017 ± 0.033 | 886.39 ± 0.15 | 3.541 ± 0.029 | 882.79 ± 0.15 | 3.145 ± 0.026 | 879.19 ± 0.15 | 2.817 ± 0.023 | 875.6 ± 0.15 | 2.54 ± 0.022 | 872.01 ± 0.15 | 2.302 ± 0.02 | 868.43 ± 0.15 | 1.4787 ± 0.004 | Normal melting temperature ([1]; Crystal, DTA): 2.60 ± 6 °C
5 | CC1CCCCC1 [methylcyclohexane] | 0.733 ± 0.011 | 769.58 ± 0.15 | 0.687 ± 0.011 | 765.23 ± 0.15 | 0.645 ± 0.011 | 760.89 ± 0.15 | 0.608 ± 0.011 | 756.53 ± 0.15 | 0.575 ± 0.011 | 752.17 ± 0.16 | 0.545 ± 0.011 | 747.78 ± 0.16 | 1.4175 ± 0.004 | 
6 | C1CCC(C2CCCCC2)CC1 [1,1'-bicyclohexyl] + CCC1CCCCC1 |  |  |  |  |  |  |  |  |  |  |  |  |  | viscosity ([3]; 293.15 K, x1 = 1): 4.017 ± 0.033 mPa·s; mass density ([3]; 293.15 K, x1 = 1): 886.39 ± 0.15 kg/m3; viscosity ([3]; 298.15 K, x1 = 1): 3.541 ± 0.029 mPa·s; mass density ([3]; 298.15 K, x1 = 1): 882.79 ± 0.15 kg/m3; viscosity ([3]; 303.15 K, x1 = 1): 3.145 ± 0.026 mPa·s; mass density ([3]; 303.15 K, x1 = 1): 879.19 ± 0.15 kg/m3; viscosity ([3]; 308.15 K, x1 = 1): 2.817 ± 0.023 mPa·s; mass density ([3]; 308.15 K, x1 = 1): 875.6 ± 0.15 kg/m3; viscosity ([3]; 313.15 K, x1 = 1): 2.54 ± 0.022 mPa·s; mass density ([3]; 313.15 K, x1 = 1): 872.01 ± 0.15 kg/m3; viscosity ([3]; 318.15 K, x1 = 1): 2.302 ± 0.02 mPa·s; mass density ([3]; 318.15 K, x1 = 1): 868.43 ± 0.15 kg/m3
7 | CCCCC1CCCCC1 [butylcyclohexane] | 1.3 ± 0.014 | 799.6 ± 0.15 | 1.198 ± 0.013 | 795.85 ± 0.15 | 1.109 ± 0.013 | 792.1 ± 0.15 | 1.03 ± 0.013 | 788.33 ± 0.15 | 0.96 ± 0.012 | 784.56 ± 0.15 | 0.898 ± 0.012 | 780.78 ± 0.15 | 1.4399 ± 0.004 | 
